Earlier results as cited in patent US11406718B2, “Methods of detecting pancreobiliary ductal leaks” (CHIRHOCLIN, INC., priority 2012, dated 2022).
No end group written: not given here.

Row | Substance | serious adverse drug reactions (human secretin stimulation) | adverse reaction seen rarely (thousands of patients in pancreobiliary function testing with human secretin) | allergic reactions (human, in vivo) | dose safely given (human, in vivo) [µg/kg] | hemodynamic effects (human, in vivo) | largest dose administered in a study, found safe (human, in vivo) [µg] | risk of acute pancreatitis episodes (human, in vivo) | effect on pancreatic duct diameter (pancreas; in vivo) | effect on sphincter of Oddi (pancreas; in vivo) | effect on pancreatic juice (pancreas; primary action)
1 | human secretin | There has not been any serious reported adverse drug reaction | flushing of the face with stable vital signs | – | – | – | – | – | – | – | –
2 | secretin (HSDGTFTSELSRLRDSARLQRLLQGLV; ends and bridges not checked; UniProt P63298 33-59, looked up) [3055.5 MW (27 amino acid) gastrointestinal peptide hormone originally extracted from the porcine duodenum] | – | – | No allergic reactions have been reported | 0.78 | No significant hemodynamic effects have been observed | 160 | not known to increase the risk of acute pancreatitis episodes | increases the pancreatic duct diameter | causes sphincter of Oddi relaxation | increase the volume and bicarbonate content of pancreatic juice
